In brackets after ≈: the same amount, converted by molar mass. Activity calls are given as the source filed them. The rule behind the calls is not given here.
Legend:
[1] = Aqueous solubility of the compound in PBS at pH 7.4 at 20 degC after 24 hrs by HPLC analysis; format: physicochemical
[2] = Intrinsic clearance in human hepatocytes assessed per million cells at 1 uM by LC-MS/MS analysis; format: ADME, cell-based, Hepatocyte; settings: human hepatocytes, read-out: CLH
[3] = Half life in human neonatal keratinocytes at 1 uM by LC-MS/MS analysis; format: ADME, cell-based
[4] = molecular target: T1, Disintegrin and metalloproteinase domain-containing protein 10 (Homo sapiens, UniProt O14672); test: Inhibition of ADAM10 (unknown origin)
T1 sequence (O14672 whole entry): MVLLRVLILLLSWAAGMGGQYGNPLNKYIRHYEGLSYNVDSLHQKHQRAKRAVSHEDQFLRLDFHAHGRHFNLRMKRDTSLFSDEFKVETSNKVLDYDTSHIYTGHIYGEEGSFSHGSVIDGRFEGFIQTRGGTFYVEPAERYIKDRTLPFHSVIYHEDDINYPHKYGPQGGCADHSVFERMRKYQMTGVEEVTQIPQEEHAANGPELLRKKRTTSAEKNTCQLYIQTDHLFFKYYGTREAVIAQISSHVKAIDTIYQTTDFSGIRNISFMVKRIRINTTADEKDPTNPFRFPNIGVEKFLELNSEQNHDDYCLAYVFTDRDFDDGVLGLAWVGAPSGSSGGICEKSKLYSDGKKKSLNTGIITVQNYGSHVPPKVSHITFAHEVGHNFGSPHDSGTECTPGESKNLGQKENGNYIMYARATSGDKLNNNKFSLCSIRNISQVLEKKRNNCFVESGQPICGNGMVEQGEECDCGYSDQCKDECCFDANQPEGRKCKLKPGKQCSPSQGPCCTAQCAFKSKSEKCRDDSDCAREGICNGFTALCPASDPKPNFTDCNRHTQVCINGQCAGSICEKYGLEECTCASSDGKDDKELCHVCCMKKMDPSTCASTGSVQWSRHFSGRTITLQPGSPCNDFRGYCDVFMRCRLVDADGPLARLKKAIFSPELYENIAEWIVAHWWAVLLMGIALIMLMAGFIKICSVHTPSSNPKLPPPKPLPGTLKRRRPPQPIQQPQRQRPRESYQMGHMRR

[5] = molecular target: Neutrophil collagenase (Homo sapiens, UniProt P22894); test: Inhibition of MMP8 (unknown origin)
[6] = test system: Salmonella typhimurium; test: Mutagenicity in Salmonella typhimurium TA98 in absence of rat S9 fraction by Ames test; format: toxicity, organism-based; settings: salmonella enterica subsp. enterica serovar typhimurium
[7] = test system: Mus musculus; test: Antiinflammatory activity in topically applied oxazolone-induced chronic skin inflammation hairless SKH1 mouse model assessed as decrease in skin lesions applied topically for 10 days in combination with oxazolone; format: functional, organism-based
[8] = test system: Mus musculus; test: Antiinflammatory activity in topically applied oxazolone-induced chronic skin inflammation hairless SKH1 mouse model assessed as decrease in TNFalpha secretion applied topically for 10 days in combination with oxazolone; format: functional, organism-based
[9] = test system: Mus musculus; test: Antiinflammatory activity in topically applied oxazolone-induced chronic skin inflammation hairless SKH1 mouse model assessed as decrease in epidermis thickening applied topically for 10 days in combination with oxazolone; format: functional, organism-based

Chain of Neutrophil collagenase (P22894 whole entry): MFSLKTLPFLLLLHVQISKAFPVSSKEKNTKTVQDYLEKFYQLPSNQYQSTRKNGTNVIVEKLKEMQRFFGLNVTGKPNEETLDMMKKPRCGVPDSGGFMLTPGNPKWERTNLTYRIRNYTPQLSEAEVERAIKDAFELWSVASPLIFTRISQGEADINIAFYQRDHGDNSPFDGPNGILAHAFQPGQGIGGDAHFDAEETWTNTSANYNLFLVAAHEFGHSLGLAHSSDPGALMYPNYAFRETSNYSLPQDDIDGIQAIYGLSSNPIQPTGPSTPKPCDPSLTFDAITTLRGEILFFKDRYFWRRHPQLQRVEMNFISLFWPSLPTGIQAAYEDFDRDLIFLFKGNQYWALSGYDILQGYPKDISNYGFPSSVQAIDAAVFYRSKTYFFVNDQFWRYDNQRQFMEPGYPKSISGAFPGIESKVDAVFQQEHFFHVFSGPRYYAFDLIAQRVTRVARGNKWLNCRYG

solubility at 24 h [1]	hepatocyte CLint at 1 µM [2]	half-life at 1 µM [3]	IC50 [4]	IC50 [5]	SMILES	Activity [6]	Activity [7]	Activity [8]	Activity [9]
62 µM (≈ 33.5 µg/mL)	14 µL/min/1e6 cells	> 24 h	1300 nM	3700 nM	Cc1cc(COc2ccc(S(=O)(=O)N(C)C3(C(=O)NO)CN(C(=O)CC(C)C)C3)cc2)c2ccccc2n1	Non-Toxic	–	–	–
84 µM (≈ 44.2 µg/mL)	8 µL/min/1e6 cells	> 24 h	950 nM	2600 nM	Cc1cc(COc2ccc(S(=O)(=O)N(C)C3(C(=O)NO)CN(C(=O)C(C)C)C3)cc2)c2ccccc2n1	Non-Toxic	Dose-dependent effect	Active	Active
